Reference: patent US10294202B2, “Pyrrolidinones as herbicides” (FMC Corporation, priority 2013, dated 2019)

Legend:
pigweed, palmer = experiment: Test E preemergence herbicide test; format: in vivo, Amaranthus palmeri; parameters: key: 0 = no effect, 100 = complete control
Method in brief: (§1)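 Seeds sown in silt loam soil received preemergence treatment with compound in a non-phytotoxic solvent mixture containing surfactant. After 21 days in the greenhouse, plants were visually rated against untreated controls on a 0 (no effect) to 100 (complete control) scale.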

ragweed = experiment: Test E preemergence herbicide test; format: in vivo, Ambrosia elatior; parameters: key: 0 = no effect, 100 = complete control
Method in brief: as §1

barnyardgrass = experiment: Test E preemergence herbicide test; format: in vivo, Echinochloa crus-galli; parameters: key: 0 = no effect, 100 = complete control
Method in brief: as §1

ryegrass, Italian = experiment: Test E preemergence herbicide test; format: in vivo, Lolium multiflorum; parameters: key: 0 = no effect, 100 = complete control
Text: (§2) Seeds of plant species selected from corn (Zea mays), soybean (Glycine max), velvetleaf (Abutilon theophrasti), lambsquarters (Chenopodium album), wild poinsettia (Euphorbia heterophylla), pigweed, palmer (palmer pigweed, Amaranthus palmeri), waterhemp (common waterhemp, Amaranthus rudis), surinam grass (Brachiaria decumbens), crabgrass, large (large crabgrass, Digitaria sanguinalis), crabgrass, Brazil (Brazilian crabgrass, Digitaria horizontalis), panicum, fall (fall panicum, Panicum dichotomiflorum), foxtail, giant (giant foxtail, Setaria faberii), foxtail, green (green foxtail, Setaria viridis), goosegrass (Eleusine indica), johnsongrass (Sorghum halepense), ragweed (common ragweed, Ambrosia elatior), barnyardgrass (Echinochloa crus-galli), sandbur (southern sandbur, Cenchrus echinatus), arrowleaf […] rhombifolia), ryegrass, Italian (Italian ryegrass, Lolium multiflorum), dayflower, VA (Virginia dayflower, Commelina virginica), field bindweed (Convolvulus arvensis), morningglory (Ipomoea coccinea), nightshade (eastern black nightshade, Solanum ptycanthum), kochia (Kochia scoparia), nutsedge, yellow (yellow nutsedge, Cyperus esculentus), cocklebur (common cocklebur, Xanthium strumarium), smartweed (ladysthumb smartweed, Polygonum Persicaria) and beggarticks (hairy beggarticks, Bidens pilosa), were planted into a silt loam soil and treated preemergence with test chemicals formulated in a non-phytotoxic solvent mixture which included a surfactant. Treated plants and controls were maintained in a greenhouse for 21 days, after which time all species were compared to controls and visually evaluated. Plant response ratings, summarized in Table E, are based on a scale of 0 to 100 where 0 is no effect and 100 is complete control. A dash (-) response means no test result.

dayflower, VA = experiment: Test E preemergence herbicide test; format: in vivo, Commelina virginica; parameters: key: 0 = no effect, 100 = complete control
Method in brief: as §1

morningglory = experiment: Test E preemergence herbicide test; format: in vivo, Ipomoea coccinea; parameters: key: 0 = no effect, 100 = complete control
Text: as §2

beggarticks = experiment: Test E preemergence herbicide test; format: in vivo, Bidens pilosa; parameters: key: 0 = no effect, 100 = complete control
Text: as §2

field violet = experiment: Test D pre-/postemergence herbicide test; format: in vivo, Viola arvensis; settings: for Plant response rating: Field Violet, scale 0 to 100; for Plant response rating, Field Violet: scale 0 to 100 (0 no effect, 100 complete control)
Method in brief: (§3)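 Compound applied in non-phytotoxic solvent with surfactant, either preemergence (silt loam soil) or postemergence (peat moss/vermiculite medium, 2–18 cm plants). Evaluated visually after 7 to 21 days; 0 = no effect, 100 = complete control.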

oilseed rape = experiment: Test D pre-/postemergence herbicide test; format: in vivo, Brassica napus; settings: for Plant response rating: Postemergence, Oilseed Rape, scale 0 to 100; for Plant response rating, Oilseed Rape: Preemergence, scale 0 to 100 (0 no effect, 100 complete control)
Method in brief: as §3

wheat, spring = experiment: Test D pre-/postemergence herbicide test; format: in vivo, Triticum aestivum; settings: for Plant response rating: Postemergence, Wheat, Spring, scale 0 to 100; for Plant response rating, Wheat, Spring: Preemergence, scale 0 to 100 (0 no effect, 100 complete control)
Method in brief: as §3

wheat, winter = experiment: Test D pre-/postemergence herbicide test; format: in vivo, Triticum aestivum; settings: for Plant response rating: Postemergence, Wheat, Winter, scale 0 to 100; for Plant response rating, Wheat, Winter: Preemergence, scale 0 to 100 (0 no effect, 100 complete control)
Method in brief: as §3

O=C1NCC(c2ccc(Cl)c(Cl)c2)C1C(=O)Nc1ccccc1F (racemic) [Compound 14]
75: Plant response rating, Barnyardgrass (barnyardgrass; 250 g ai/ha)
0: Plant response rating, Pigweed, Palmer (pigweed, palmer; 16 g ai/ha) | Plant response rating, Pigweed, Palmer (pigweed, palmer; 31 g ai/ha) | Plant response rating, Pigweed, Palmer (pigweed, palmer; 62 g ai/ha) | Plant response rating, Pigweed, Palmer (pigweed, palmer; 125 g ai/ha) | Plant response rating, Pigweed, Palmer (pigweed, palmer; 250 g ai/ha) | Plant response rating, Ragweed (ragweed; 16 g ai/ha) | Plant response rating, Ragweed (ragweed; 31 g ai/ha) | Plant response rating, Ragweed (ragweed; 62 g ai/ha) | Plant response rating, Ragweed (ragweed; 125 g ai/ha) | Plant response rating, Ragweed (ragweed; 250 g ai/ha) | Plant response rating, Barnyardgrass (barnyardgrass; 16 g ai/ha) | Plant response rating, Barnyardgrass (barnyardgrass; 31 g ai/ha) | Plant response rating, Barnyardgrass (barnyardgrass; 62 g ai/ha) | Plant response rating, Ryegrass, Italian (ryegrass, Italian; 16 g ai/ha) | Plant response rating, Ryegrass, Italian (ryegrass, Italian; 31 g ai/ha) | Plant response rating, Ryegrass, Italian (ryegrass, Italian; 62 g ai/ha) | Plant response rating, Ryegrass, Italian (ryegrass, Italian; 125 g ai/ha) | Plant response rating, Ryegrass, Italian (ryegrass, Italian; 250 g ai/ha) | Plant response rating, Dayflower, VA (dayflower, VA; 16 g ai/ha) | Plant response rating, Dayflower, VA (dayflower, VA; 31 g ai/ha) | Plant response rating, Dayflower, VA (dayflower, VA; 62 g ai/ha) | Plant response rating, Dayflower, VA (dayflower, VA; 125 g ai/ha) | Plant response rating, Dayflower, VA (dayflower, VA; 250 g ai/ha) | Plant response rating, Morningglory (morningglory; 16 g ai/ha) | Plant response rating, Morningglory (morningglory; 31 g ai/ha) | Plant response rating, Morningglory (morningglory; 125 g ai/ha) | Plant response rating, Morningglory (morningglory; 250 g ai/ha) | Plant response rating, Beggarticks (beggarticks; 16 g ai/ha) | Plant response rating, Beggarticks (beggarticks; 31 g ai/ha) | Plant response rating, Beggarticks (beggarticks; 62 g ai/ha) | Plant response rating, Beggarticks (beggarticks; 125 g ai/ha) | Plant response rating, Beggarticks (beggarticks; 250 g ai/ha)
40: Plant response rating, Barnyardgrass (barnyardgrass; 125 g ai/ha)

O=C1NCC(c2ccc(C(F)(F)F)cc2)C1C(=O)Nc1cccc(F)c1F (racemic) [Compound 202]
98: Plant response rating, Barnyardgrass (barnyardgrass; 250 g ai/ha)
0: Plant response rating, Field Violet (field violet; Preemergence, 62 g ai/ha) | Plant response rating, Field Violet (field violet; Preemergence, 31 g ai/ha) | Plant response rating, Oilseed Rape (oilseed rape; 31 g ai/ha) | Plant response rating (wheat, spring; 31 g ai/ha) | Plant response rating (wheat, spring; 62 g ai/ha) | Plant response rating (wheat, spring; 125 g ai/ha) | Plant response rating, Wheat, Spring (wheat, spring; 31 g ai/ha) | Plant response rating (wheat, winter; 31 g ai/ha) | Plant response rating (wheat, winter; 62 g ai/ha) | Plant response rating (wheat, winter; 125 g ai/ha) | Plant response rating (wheat, winter; 250 g ai/ha) | Plant response rating, Pigweed, Palmer (pigweed, palmer; 31 g ai/ha) | Plant response rating, Ryegrass, Italian (ryegrass, Italian; 31 g ai/ha) | Plant response rating, Ryegrass, Italian (ryegrass, Italian; 62 g ai/ha) | Plant response rating, Dayflower, VA (dayflower, VA; 31 g ai/ha) | Plant response rating, Dayflower, VA (dayflower, VA; 62 g ai/ha) | Plant response rating, Dayflower, VA (dayflower, VA; 125 g ai/ha) | Plant response rating, Morningglory (morningglory; 31 g ai/ha) | Plant response rating, Morningglory (morningglory; 62 g ai/ha) | Plant response rating, Morningglory (morningglory; 125 g ai/ha) | Plant response rating, Beggarticks (beggarticks; 31 g ai/ha) | Plant response rating, Beggarticks (beggarticks; 62 g ai/ha)
40: Plant response rating (field violet; Postemergence, 31 g ai/ha) | Plant response rating, Barnyardgrass (barnyardgrass; 31 g ai/ha) | Plant response rating, Dayflower, VA (dayflower, VA; 250 g ai/ha)
25: Plant response rating, Wheat, Spring (wheat, spring; 125 g ai/ha) | Plant response rating, Wheat, Winter (wheat, winter; 125 g ai/ha) | Plant response rating, Wheat, Winter (wheat, winter; 250 g ai/ha) | Plant response rating, Ryegrass, Italian (ryegrass, Italian; 125 g ai/ha)
90: Plant response rating, Ragweed (ragweed; 250 g ai/ha)
70: Plant response rating (oilseed rape; 62 g ai/ha) | Plant response rating, Pigweed, Palmer (pigweed, palmer; 62 g ai/ha)
20: Plant response rating, Ragweed (ragweed; 31 g ai/ha)
55: Plant response rating (oilseed rape; 250 g ai/ha)
60: Plant response rating (oilseed rape; 31 g ai/ha) | Plant response rating (oilseed rape; 125 g ai/ha)
15: Plant response rating (field violet; Preemergence, 250 g ai/ha)
80: Plant response rating, Pigweed, Palmer (pigweed, palmer; 250 g ai/ha) | Plant response rating, Ragweed (ragweed; 62 g ai/ha) | Plant response rating, Barnyardgrass (barnyardgrass; 62 g ai/ha) | Plant response rating, Beggarticks (beggarticks; 250 g ai/ha)
50: Plant response rating, Ryegrass, Italian (ryegrass, Italian; 250 g ai/ha)
35: Plant response rating, Oilseed Rape (oilseed rape; 62 g ai/ha) | Plant response rating, Wheat, Spring (wheat, spring; 250 g ai/ha) | Plant response rating, Beggarticks (beggarticks; 125 g ai/ha)
85: Plant response rating, Pigweed, Palmer (pigweed, palmer; 125 g ai/ha) | Plant response rating, Ragweed (ragweed; 125 g ai/ha) | Plant response rating, Barnyardgrass (barnyardgrass; 125 g ai/ha)
30: Plant response rating (field violet; Postemergence, 62 g ai/ha) | Plant response rating (field violet; Postemergence, 125 g ai/ha) | Plant response rating (field violet; Postemergence, 250 g ai/ha) | Plant response rating, Morningglory (morningglory; 250 g ai/ha)
5: Plant response rating (wheat, spring; 250 g ai/ha) | Plant response rating, Wheat, Spring (wheat, spring; 62 g ai/ha) | Plant response rating, Wheat, Winter (wheat, winter; 31 g ai/ha)
10: Plant response rating (field violet; Preemergence, 125 g ai/ha) | Plant response rating, Wheat, Winter (wheat, winter; 62 g ai/ha)
45: Plant response rating, Oilseed Rape (oilseed rape; 125 g ai/ha)
75: Plant response rating, Oilseed Rape (oilseed rape; 250 g ai/ha)

O=C1NCC(c2ccc(OC(F)F)cc2)C1C(=O)Nc1cccc(F)c1F (racemic) [Compound 350]
0: Plant response rating, Pigweed, Palmer (pigweed, palmer; 31 g ai/ha) | Plant response rating, Pigweed, Palmer (pigweed, palmer; 62 g ai/ha) | Plant response rating, Ragweed (ragweed; 31 g ai/ha) | Plant response rating, Ragweed (ragweed; 62 g ai/ha) | Plant response rating, Ryegrass, Italian (ryegrass, Italian; 31 g ai/ha) | Plant response rating, Dayflower, VA (dayflower, VA; 31 g ai/ha) | Plant response rating, Dayflower, VA (dayflower, VA; 62 g ai/ha) | Plant response rating, Dayflower, VA (dayflower, VA; 125 g ai/ha) | Plant response rating, Morningglory (morningglory; 31 g ai/ha) | Plant response rating, Morningglory (morningglory; 62 g ai/ha) | Plant response rating, Morningglory (morningglory; 125 g ai/ha) | Plant response rating, Morningglory (morningglory; 250 g ai/ha) | Plant response rating, Beggarticks (beggarticks; 31 g ai/ha) | Plant response rating, Beggarticks (beggarticks; 62 g ai/ha)
98: Plant response rating, Barnyardgrass (barnyardgrass; 250 g ai/ha)
65: Plant response rating, Ragweed (ragweed; 250 g ai/ha)
40: Plant response rating, Barnyardgrass (barnyardgrass; 62 g ai/ha) | Plant response rating, Dayflower, VA (dayflower, VA; 250 g ai/ha)
15: Plant response rating, Barnyardgrass (barnyardgrass; 31 g ai/ha)
60: Plant response rating, Ragweed (ragweed; 125 g ai/ha) | Plant response rating, Barnyardgrass (barnyardgrass; 125 g ai/ha)
35: Plant response rating, Pigweed, Palmer (pigweed, palmer; 125 g ai/ha) | Plant response rating, Pigweed, Palmer (pigweed, palmer; 250 g ai/ha) | Plant response rating, Ryegrass, Italian (ryegrass, Italian; 250 g ai/ha)
25: Plant response rating, Ryegrass, Italian (ryegrass, Italian; 62 g ai/ha)
20: Plant response rating, Ryegrass, Italian (ryegrass, Italian; 125 g ai/ha) | Plant response rating, Beggarticks (beggarticks; 125 g ai/ha) | Plant response rating, Beggarticks (beggarticks; 250 g ai/ha)
